According to ChEMBL document CHEMBL5442219:

Key:
Settings in all cases: Compound concentration 10 µM
[1] = molecular target: T1, Alpha-1A adrenergic receptor (Homo sapiens) (UniProt P35348)
T1 sequence (whole entry): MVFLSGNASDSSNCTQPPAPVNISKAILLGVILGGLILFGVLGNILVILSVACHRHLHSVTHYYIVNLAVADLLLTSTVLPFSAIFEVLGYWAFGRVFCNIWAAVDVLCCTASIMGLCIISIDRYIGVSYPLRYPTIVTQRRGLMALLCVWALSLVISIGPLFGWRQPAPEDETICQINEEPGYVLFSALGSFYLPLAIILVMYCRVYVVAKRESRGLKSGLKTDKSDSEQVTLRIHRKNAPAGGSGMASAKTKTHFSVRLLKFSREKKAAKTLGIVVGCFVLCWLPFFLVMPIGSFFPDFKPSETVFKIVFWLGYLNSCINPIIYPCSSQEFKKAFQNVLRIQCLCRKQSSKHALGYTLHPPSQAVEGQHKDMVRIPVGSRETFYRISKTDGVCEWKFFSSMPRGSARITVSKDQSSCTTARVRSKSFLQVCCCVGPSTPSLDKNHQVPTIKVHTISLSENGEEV
Description: PDSP Primary Binding target: ADRA1A - Compounds are tested at 10 uM concentration, plate are incubated at room temperature in the dark for 90 minutes. Reaction are stopped by vacuum filtration onto 0.3% polyethyleneimine soaked filter mats using Filtermate harvester. Scintilation cocktail is then melted onto microwave-dried filters on a hot plate and the radio activity is counted in Microbia counter.

[2] = molecular target: Translocator protein (Homo sapiens) (UniProt P30536)
Sequence of Translocator protein (Homo sapiens) (P30536 whole entry): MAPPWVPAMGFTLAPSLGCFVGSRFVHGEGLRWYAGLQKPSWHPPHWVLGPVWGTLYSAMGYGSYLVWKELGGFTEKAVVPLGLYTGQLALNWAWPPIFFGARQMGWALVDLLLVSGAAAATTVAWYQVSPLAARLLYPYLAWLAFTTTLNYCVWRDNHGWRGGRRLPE
Description: PDSP Primary Binding target: TSPO - Compounds are tested at 10 uM concentration, plate are incubated at room temperature in the dark for 90 minutes. Reaction are stopped by vacuum filtration onto 0.3% polyethyleneimine soaked filter mats using Filtermate harvester. Scintilation cocktail is then melted onto microwave-dried filters on a hot plate and the radio activity is counted in Microbia counter.

[3] = molecular target: T2, 5-hydroxytryptamine receptor 1A (Homo sapiens) (UniProt P08908)
T2 sequence (whole entry): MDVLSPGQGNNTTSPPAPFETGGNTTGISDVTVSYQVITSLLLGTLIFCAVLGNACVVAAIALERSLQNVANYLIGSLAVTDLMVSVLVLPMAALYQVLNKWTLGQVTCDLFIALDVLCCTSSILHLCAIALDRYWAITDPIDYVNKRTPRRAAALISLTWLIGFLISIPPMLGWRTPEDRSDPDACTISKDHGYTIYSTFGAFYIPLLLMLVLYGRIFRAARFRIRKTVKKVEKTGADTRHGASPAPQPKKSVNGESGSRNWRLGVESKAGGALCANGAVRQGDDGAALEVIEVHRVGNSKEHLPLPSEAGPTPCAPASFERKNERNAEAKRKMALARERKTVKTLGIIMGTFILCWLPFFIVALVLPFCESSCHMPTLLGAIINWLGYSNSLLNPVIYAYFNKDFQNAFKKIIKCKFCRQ
Description: PDSP Primary Binding target: HTR1A - Compounds are tested at 10 uM concentration, plate are incubated at room temperature in the dark for 90 minutes. Reaction are stopped by vacuum filtration onto 0.3% polyethyleneimine soaked filter mats using Filtermate harvester. Scintilation cocktail is then melted onto microwave-dried filters on a hot plate and the radio activity is counted in Microbia counter.

[4] = molecular target: Histamine H1 receptor (Homo sapiens) (UniProt P35367)
Sequence of Histamine H1 receptor (Homo sapiens) (P35367 whole entry): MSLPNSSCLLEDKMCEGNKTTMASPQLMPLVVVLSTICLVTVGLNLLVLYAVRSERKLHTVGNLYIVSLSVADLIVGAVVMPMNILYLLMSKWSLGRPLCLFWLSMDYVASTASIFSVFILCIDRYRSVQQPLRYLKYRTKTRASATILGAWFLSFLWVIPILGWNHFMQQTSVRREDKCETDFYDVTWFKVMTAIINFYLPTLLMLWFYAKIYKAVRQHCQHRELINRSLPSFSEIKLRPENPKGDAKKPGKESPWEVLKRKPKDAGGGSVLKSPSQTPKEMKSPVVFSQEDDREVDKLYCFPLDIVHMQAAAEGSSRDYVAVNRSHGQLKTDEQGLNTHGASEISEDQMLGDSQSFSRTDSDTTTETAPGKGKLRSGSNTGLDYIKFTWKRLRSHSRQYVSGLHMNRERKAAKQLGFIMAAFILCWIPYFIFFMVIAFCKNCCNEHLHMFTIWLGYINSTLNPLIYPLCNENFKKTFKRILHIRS
Description: PDSP Primary Binding target: HRH1 - Compounds are tested at 10 uM concentration, plate are incubated at room temperature in the dark for 90 minutes. Reaction are stopped by vacuum filtration onto 0.3% polyethyleneimine soaked filter mats using Filtermate harvester. Scintilation cocktail is then melted onto microwave-dried filters on a hot plate and the radio activity is counted in Microbia counter.

[5] = molecular target: T3, Alpha-1B adrenergic receptor (Homo sapiens) (UniProt P35368)
T3 sequence (whole entry): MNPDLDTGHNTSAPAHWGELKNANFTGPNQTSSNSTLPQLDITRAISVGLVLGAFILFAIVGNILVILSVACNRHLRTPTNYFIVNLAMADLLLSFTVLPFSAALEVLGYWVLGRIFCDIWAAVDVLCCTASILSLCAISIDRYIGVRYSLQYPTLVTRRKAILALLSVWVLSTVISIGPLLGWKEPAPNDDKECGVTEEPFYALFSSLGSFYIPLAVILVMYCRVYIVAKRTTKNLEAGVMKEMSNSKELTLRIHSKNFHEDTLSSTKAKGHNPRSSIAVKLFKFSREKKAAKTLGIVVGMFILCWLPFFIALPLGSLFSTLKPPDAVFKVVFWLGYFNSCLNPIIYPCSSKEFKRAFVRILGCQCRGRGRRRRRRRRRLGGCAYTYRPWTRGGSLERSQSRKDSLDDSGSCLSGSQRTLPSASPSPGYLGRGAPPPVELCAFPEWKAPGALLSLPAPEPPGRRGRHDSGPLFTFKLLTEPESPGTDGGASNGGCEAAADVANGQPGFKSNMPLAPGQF
Description: PDSP Primary Binding target: ADRA1B - Compounds are tested at 10 uM concentration, plate are incubated at room temperature in the dark for 90 minutes. Reaction are stopped by vacuum filtration onto 0.3% polyethyleneimine soaked filter mats using Filtermate harvester. Scintilation cocktail is then melted onto microwave-dried filters on a hot plate and the radio activity is counted in Microbia counter.

[6] = molecular target: T4, 5-hydroxytryptamine receptor 2C (Homo sapiens) (UniProt P28335)
T4 sequence (whole entry): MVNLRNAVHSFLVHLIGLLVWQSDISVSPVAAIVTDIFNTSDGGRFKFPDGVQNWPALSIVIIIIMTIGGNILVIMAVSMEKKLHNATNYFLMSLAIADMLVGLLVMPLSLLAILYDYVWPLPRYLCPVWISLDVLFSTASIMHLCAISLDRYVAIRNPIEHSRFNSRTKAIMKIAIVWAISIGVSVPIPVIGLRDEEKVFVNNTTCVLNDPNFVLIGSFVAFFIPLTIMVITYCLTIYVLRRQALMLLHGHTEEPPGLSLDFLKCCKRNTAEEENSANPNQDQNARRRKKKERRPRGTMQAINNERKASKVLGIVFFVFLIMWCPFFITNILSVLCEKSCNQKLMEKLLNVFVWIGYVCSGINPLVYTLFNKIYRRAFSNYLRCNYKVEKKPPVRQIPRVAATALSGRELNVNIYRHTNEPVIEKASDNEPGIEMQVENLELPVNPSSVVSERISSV
Description: PDSP Primary Binding target: HTR2C - Compounds are tested at 10 uM concentration, plate are incubated at room temperature in the dark for 90 minutes. Reaction are stopped by vacuum filtration onto 0.3% polyethyleneimine soaked filter mats using Filtermate harvester. Scintilation cocktail is then melted onto microwave-dried filters on a hot plate and the radio activity is counted in Microbia counter.

[7] = molecular target: T5, Muscarinic acetylcholine receptor M4 (Homo sapiens) (UniProt P08173)
T5 sequence (whole entry): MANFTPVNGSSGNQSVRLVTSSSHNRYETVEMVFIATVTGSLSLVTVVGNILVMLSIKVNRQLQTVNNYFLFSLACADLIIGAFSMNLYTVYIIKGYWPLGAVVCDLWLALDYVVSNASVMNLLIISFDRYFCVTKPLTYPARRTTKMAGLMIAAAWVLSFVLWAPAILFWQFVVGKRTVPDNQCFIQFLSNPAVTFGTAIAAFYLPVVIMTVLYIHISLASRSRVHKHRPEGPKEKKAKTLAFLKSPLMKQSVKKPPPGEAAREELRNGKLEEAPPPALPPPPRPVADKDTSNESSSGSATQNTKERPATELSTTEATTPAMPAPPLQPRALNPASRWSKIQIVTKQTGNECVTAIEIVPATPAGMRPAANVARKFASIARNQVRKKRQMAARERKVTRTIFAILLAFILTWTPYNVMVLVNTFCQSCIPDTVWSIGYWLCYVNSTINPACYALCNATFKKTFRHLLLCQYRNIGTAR
Description: PDSP Primary Binding target: CHRM4 - Compounds are tested at 10 uM concentration, plate are incubated at room temperature in the dark for 90 minutes. Reaction are stopped by vacuum filtration onto 0.3% polyethyleneimine soaked filter mats using Filtermate harvester. Scintilation cocktail is then melted onto microwave-dried filters on a hot plate and the radio activity is counted in Microbia counter.

[8] = molecular target: T6, Muscarinic acetylcholine receptor M1 (Homo sapiens) (UniProt P11229)
T6 sequence (whole entry): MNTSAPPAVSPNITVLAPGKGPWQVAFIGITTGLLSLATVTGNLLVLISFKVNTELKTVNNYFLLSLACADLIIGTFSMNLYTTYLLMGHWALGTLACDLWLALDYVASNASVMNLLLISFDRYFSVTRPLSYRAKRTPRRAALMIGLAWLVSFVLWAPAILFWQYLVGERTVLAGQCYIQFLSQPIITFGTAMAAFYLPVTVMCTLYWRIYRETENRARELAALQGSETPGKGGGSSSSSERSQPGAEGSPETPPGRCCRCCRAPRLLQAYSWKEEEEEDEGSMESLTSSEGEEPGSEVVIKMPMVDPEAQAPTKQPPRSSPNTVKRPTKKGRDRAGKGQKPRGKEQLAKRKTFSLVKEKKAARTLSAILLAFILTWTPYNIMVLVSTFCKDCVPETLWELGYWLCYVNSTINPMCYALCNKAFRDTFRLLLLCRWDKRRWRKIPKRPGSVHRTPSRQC
Description: PDSP Primary Binding target: CHRM1 - Compounds are tested at 10 uM concentration, plate are incubated at room temperature in the dark for 90 minutes. Reaction are stopped by vacuum filtration onto 0.3% polyethyleneimine soaked filter mats using Filtermate harvester. Scintilation cocktail is then melted onto microwave-dried filters on a hot plate and the radio activity is counted in Microbia counter.

| SMILES | inhibition [1] | inhibition [2] | inhibition [3] | inhibition [4] | inhibition [5] | inhibition [6] | inhibition [7] | inhibition [8] |
| --- | --- | --- | --- | --- | --- | --- | --- | --- |
| CN(C(=O)Cc1ccc(Cl)c(Cl)c1)C(CN1CCCC1)c1cccc(OCC(=O)O)c1 (configuration not stated) | -0.83% | 21.5% | 24.9% | 47.4% | – | – | – | – |
| COc1cccc([C@H](O)C2CCN(CCc3ccc(F)cc3)CC2)c1OC | 31.6% | -6.18% | 3.32% | 92.9% | 57.3% | – | – | – |
| O=C(O)CC/C=C\C[C@@H]1CO[C@H](c2ccccc2Cl)O[C@@H]1c1ccccc1O | -9.2% | 8.35% | 16.9% | 33.4% | -9.67% | -5.63% | – | – |
| CN1CC(=O)N=C1NC(=O)Nc1cccc(Cl)c1 | 7.79% | -8.11% | – | -1.11% | -6.38% | 5.25% | -2.92% | – |
| CN(C)C(=O)C(CCN1CCC(O)(c2ccc(Cl)cc2)CC1)(c1ccccc1)c1ccccc1 | 42.9% | 50% | 41.4% | – | 52.4% | 0.09% | -6.62% | – |
| CCCCc1nc(Cl)c(CO)n1Cc1ccc(-c2ccccc2-c2nnn[nH]2)cc1 | -0.59% | 5.8% | 19.9% | – | -2.24% | 55% | -5.3% | – |
| O=c1ccn([C@@H]2O[C@H](COP(=O)(O)OP(=O)(O)O)[C@@H](O)[C@H]2O)c(=O)[nH]1 | -6.92% | 5.14% | 5.47% | 34.8% | -6.51% | 3.57% | 9.94% | – |
| CCCCN1CCC(COC(=O)c2cc(Cl)c(N)c3c2OCCO3)CC1 | 52.9% | 0.42% | -1.01% | 55.4% | -1.39% | 58.2% | 5.81% | – |
| COc1ccc(S(=O)(=O)N2c3ccc(Cl)cc3[C@](O)(c3ccccc3Cl)[C@@H]2C(=O)N2CCC[C@H]2C(N)=O)cc1OC | -4.04% | – | 8.75% | 5.97% | 2.62% | 21.8% | – | – |
| O=C(c1cc2c(cc1F)OC(c1ccc(F)cc1)(c1ccc(Cl)cc1Cl)O2)N1CCOCC1 (configuration not stated) | 14.6% | 49.3% | 5.52% | 15.4% | – | 73.4% | – | – |
| CCCn1c(=O)c2[nH]c(-c3cnn(Cc4cccc(C(F)(F)F)c4)c3)nc2n(CC)c1=O | -4.72% | 14.7% | – | -0.63% | -5.87% | – | – | -6.12% |
| COc1ccccc1CN[C@H]1C2CCN(CC2)[C@H]1C(c1ccccc1)c1ccccc1 | -7.95% | 30.2% | -1.15% | 40.4% | 1.04% | -3.39% | -4.3% | – |
| CC(C)NCC(O)COc1cccc2ccccc12 (configuration not stated) | 14.6% | – | 77.5% | – | – | 68% | -3.37% | – |
| CCc1cc(C(C)=O)c(O)cc1OCCCCCC(C)(C)c1nn[nH]n1 | 8.06% | -1.68% | -8.57% | 17.1% | -3.95% | 0.93% | -4.28% | – |
| Nc1nc(NCCc2ccc(O)cc2)nc2nc(-c3ccco3)nn12 | -6.79% | 22.4% | -6.94% | – | 2.08% | 8.15% | – | – |
| OC1(c2ccc(Cl)cc2)CCN(Cc2c[nH]c3ccccc23)CC1 | 66.1% | -2.88% | 2% | 38.8% | 37.1% | 18.8% | -10% | – |
| Cc1cccc([C@H](C)c2c[nH]cn2)c1C | 63% | -0.25% | -0.33% | – | 54.8% | 14.5% | – | – |
| Cc1cccc(NC(=O)N[C@@H]2N=C(c3ccccc3)c3ccccc3N(C)C2=O)c1 | -7.27% | 27.5% | -9.64% | 12.5% | – | -0.72% | -5.23% | – |
| N=C(N)SCCc1c[nH]cn1 | -6.16% | 5.09% | – | 6.96% | -9.87% | -2.06% | – | – |
| CC(C)(N)C(=O)N[C@H](COCc1ccccc1)C(=O)N1CCC2(CC1)CN(S(C)(=O)=O)c1ccccc12 | 3.39% | 9.25% | -5.57% | 24.6% | 11.4% | -2.12% | – | – |
| CC(C)(C)NC[C@H](O)COc1nsnc1N1CCOCC1 | 2.77% | 0.37% | 39.4% | – | -6.31% | -1.62% | -8.25% | – |
| COc1ccc(/C=C/CCCCOc2ccc(C(=O)c3cccc(C(=O)O)c3)cc2CCC(=O)O)cc1 | 11.7% | 35.5% | 30.3% | 18.1% | -5.5% | 3.04% | – | – |
| CCCCN(CC)c1nc(C)nc2c1c(C)cn2-c1c(C)cc(C)cc1C | 18.2% | 74.3% | -6.24% | 12.4% | 14.4% | -7.17% | – | – |
